# pKi: −log10 of the molar value.
# What was measured:
# [1] = Safety: treatment-emergent adverse events in study CL-0538; assay type: in vivo, healthy subjects
# [2] = Safety and tolerability across the 3 studies; assay type: in vivo, healthy subjects; details: roxadustat 200 mg, observation periods of the 3 studies
# [3] = Safety: treatment-emergent adverse events in study CL-0537; assay type: in vivo, healthy subjects
# CYP2C8 = details: read-out: inhibition constant (Ki); in vitro; cited from earlier work
# [4] = cited from earlier work
structure (smiles),measurement,setting,value
Cc1nc(C(=O)NCC(=O)O)c(O)c2ccc(Oc3ccccc3)cc12 [Roxadustat],"TEAE dry mouth, subjects",[1]; CL-0538,8.3%
same,"TEAE headache, subjects",[1]; CL-0538,4.2%
same,number of TEAEs considered possibly related to the study drug,[1]; investigator assessment,3
same,subjects with TEAEs considered possibly related to the study drug,[1]; investigator assessment,2 (8.3%) n (%)
same,"deaths, serious TEAEs, AEs leading to discontinuation",[2],"did not result in any deaths, serious TEAEs, or AEs leading to discontinuation of study drug"
same,"TEAE headache, subjects",[3]; CL-0537,7.1%
same,"TEAE nasopharyngitis, subjects",[3]; CL-0537,0.0%
same,number of TEAEs considered related to the study drug,[3]; investigator assessment,4
same,subjects with TEAEs considered related to the study drug,[3]; investigator assessment,4 (14.3%) n (%)
same,pKi,CYP2C8,4.80
same,terminal elimination half-life (t1/2),"[4]; after single-dose oral administration, healthy subjects",≈ 12 hours
same,time to maximum plasma concentrations (Cmax) after dosing,[4]; fasted state,≤ 2 h
same,time to reach maximum plasma concentration (Cmax),"[4]; oral, healthy subjects",≤ 2 h
